Source: US9283222B2 (priority 2006, dated 2016)
pKi: −log10 of the molar value.

Molecular target: Recombinant Human Poly(ADP-Ribose) Polymerase (PARP), PARP-1 (Homo sapiens (Human), UniProt P09874)
Details: read-out: PARP-1 (Ki); Table 1; text calls the values EC50s
Experimental: Nicotinamide[2,5′,8-3H]adenine dinucleotide and strepavidin SPA beads were purchased from Amersham Biosiences. […] NAD^+, histone, aminobenzamide, 3-amino benzamide and Calf Thymus DNA (dcDNA) were purchased from Sigma. Stem loop oligonucleotide containing MCAT sequence was obtained from Qiagen. The oligos were dissolved to 1 mM in annealing buffer containing 10 mM Tris HCl pH 7.5, 1 mM EDTA, and 50 mM NaCl, incubated for 5 minutes at 95° C., and annealed at 45° C. for 45 minutes. […] Biotinylated histone H1 was prepared by treating the protein with Sulfo-NHS-LC-Biotin from Pierce. The biotinylation reaction was conducted by slowly and intermittently adding 3 equivalents of 10 mM Sulfo-NHS-LC-Biotin to 100 μM Histone H1 in phosphate-buffered saline, pH 7.5, at 4° C. with gentle vortexing over 1 minute followed by subsequent 4° C. incubation for 1 hour. Streptavidin coated (FlashPlate Plus) microplates were purchased from Perkin Elmer.
PARP1 assay was conducted in PARP assay buffer containing 50 mM Tris pH 8.0, 1 mM DTT, 4 mM MgCl2. […] Auto reactions utilizing SPA bead-based detection were carried out in 100 μL volumes in white 96 well plates.

Chain of Recombinant Human Poly(ADP-Ribose) Polymerase (PARP), PARP-1 (P09874 whole entry): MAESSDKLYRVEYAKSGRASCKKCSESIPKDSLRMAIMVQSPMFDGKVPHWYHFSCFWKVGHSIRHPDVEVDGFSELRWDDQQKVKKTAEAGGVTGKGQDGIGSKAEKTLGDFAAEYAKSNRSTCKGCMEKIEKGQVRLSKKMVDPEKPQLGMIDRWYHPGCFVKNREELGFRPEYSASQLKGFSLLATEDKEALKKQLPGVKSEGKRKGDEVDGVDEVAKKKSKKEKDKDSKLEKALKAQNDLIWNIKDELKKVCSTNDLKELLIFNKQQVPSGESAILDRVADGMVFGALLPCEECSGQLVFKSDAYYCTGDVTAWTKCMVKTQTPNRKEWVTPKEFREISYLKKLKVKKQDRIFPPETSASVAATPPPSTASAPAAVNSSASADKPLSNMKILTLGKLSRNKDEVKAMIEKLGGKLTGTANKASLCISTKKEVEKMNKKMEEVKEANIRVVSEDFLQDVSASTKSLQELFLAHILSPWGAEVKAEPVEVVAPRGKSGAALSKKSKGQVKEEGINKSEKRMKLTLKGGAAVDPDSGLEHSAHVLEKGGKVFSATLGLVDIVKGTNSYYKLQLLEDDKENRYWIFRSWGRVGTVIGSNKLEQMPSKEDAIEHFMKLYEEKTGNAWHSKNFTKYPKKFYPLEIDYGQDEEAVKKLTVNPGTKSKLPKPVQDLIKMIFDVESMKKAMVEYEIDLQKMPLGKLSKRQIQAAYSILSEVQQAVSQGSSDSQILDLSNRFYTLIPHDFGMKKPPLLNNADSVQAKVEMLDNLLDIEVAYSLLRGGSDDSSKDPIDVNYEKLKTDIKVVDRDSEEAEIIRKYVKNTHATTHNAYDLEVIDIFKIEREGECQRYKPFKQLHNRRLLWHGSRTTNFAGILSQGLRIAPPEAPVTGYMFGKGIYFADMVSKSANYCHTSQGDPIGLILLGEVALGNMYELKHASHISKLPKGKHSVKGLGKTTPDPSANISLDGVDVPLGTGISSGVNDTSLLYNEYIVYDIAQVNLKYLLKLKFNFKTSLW

Compound | pKi
CC(C)n1nnc2cc(C(=O)N3CCN(C(=O)c4cc(Cc5n[nH]c(=O)c6c5CCCC6)ccc4F)CC3)ccc21 [Example 728, 4-[4-fluoro-3-({4-[(1-isopropyl-1H-1,2,3-benzotriazol-5-yl)carbonyl]piperazin-1-yl}carbonyl)benzyl]-5,6,7,8-tetrahydrophthalazin-1(2H)-one] | 8.74
O=C(NC1CCN(C(=O)[C@@H]2CSCN2)CC1)c1cc(Cc2n[nH]c(=O)c3c2NCCC3)ccc1F [Example 729, 2-fluoro-5-[(5-oxo-1,2,3,4,5,6-hexahydropyrido[2,3-d]pyridazin-8-yl)methyl]-N-{1-[(4R)-1,3-thiazolidin-4-ylcarbonyl]piperidin-4-yl}benzamide] | 7.32
O=C(NC1CCN(C(=O)c2cscn2)CC1)c1cc(Cc2n[nH]c(=O)c3c2NCCC3)ccc1F [Example 731, 2-fluoro-5-[(5-oxo-1,2,3,4,5,6-hexahydropyrido[2,3-d]pyridazin-8-yl)methyl]-N-[1-(1,3-thiazol-4-ylcarbonyl)piperidin-4-yl]benzamide] | 7.96
O=C(NC1CCN(C(=O)c2cn[nH]c2)CC1)c1cc(Cc2n[nH]c(=O)c3c2NCCC3)ccc1F [Example 734, 2-fluoro-5-[(5-oxo-1,2,3,4,5,6-hexahydropyrido[2,3-d]pyridazin-8-yl)methyl]-N-[1-(1H-pyrazol-4-ylcarbonyl)piperidin-4-yl]benzamide] | 8.05
O=C(NC1CCN(C(=O)c2ccccn2)CC1)c1cc(Cc2n[nH]c(=O)c3c2NCCC3)ccc1F [Example 736, 2-fluoro-5-[(5-oxo-1,2,3,4,5,6-hexahydropyrido[2,3-d]pyridazin-8-yl)methyl]-N-[1-(pyridin-2-ylcarbonyl)piperidin-4-yl]benzamide] | 8.40
O=C(NC1CCN(C(=O)c2ccncc2)CC1)c1cc(Cc2n[nH]c(=O)c3c2NCCC3)ccc1F [Example 738, 2-fluoro-N-(1-isonicotinoylpiperidin-4-yl)-5-[(5-oxo-1,2,3,4,5,6-hexahydropyrido[2,3-d]pyridazin-8-yl)methyl]benzamide] | 7.85
N[C@H]1CCCC[C@@H]1NC(=O)c1cc(Cc2n[nH]c(=O)c3c2NCCC3)ccc1F [Example 740, N-[(1S,2S)-2-aminocyclohexyl]-2-fluoro-5-[(5-oxo-1,2,3,4,5,6-hexahydropyrido[2,3-d]pyridazin-8-yl)methyl]benzamide] | 7.28
CCN(CCNC(=O)c1ccccc1)C(=O)c1cc(Cc2n[nH]c(=O)c3c2CCCC3)ccc1F [Example 742, N-[2-(benzoylamino)ethyl]-N-ethyl-2-fluoro-5-[(4-oxo-3,4,5,6,7,8-hexahydrophthalazin-1-yl)methyl]benzamide] | 8.74
CCN(CCNC(=O)N1CCCC1)C(=O)c1cc(Cc2n[nH]c(=O)c3c2CCCC3)ccc1F [Example 743, N-[2-(ethyl{2-fluoro-5-[(4-oxo-3,4,5,6,7,8-hexahydrophthalazin-1-yl)methyl]benzoyl}amino)ethyl]pyrrolidine-1-carboxamide] | 8.57
O=C(NC1CCN(c2ccccn2)CC1)c1cc(Cc2n[nH]c(=O)c3c2NCCC3)ccc1F [Example 745, 2-fluoro-5-[(5-oxo-1,2,3,4,5,6-hexahydropyrido[2,3-d]pyridazin-8-yl)methyl]-N-(1-pyridin-2-ylpiperidin-4-yl)benzamide] | 8.10
CN(C(=O)C1CCC1)c1cc(Cc2n[nH]c(=O)c3c2CCCC3)ccc1F [Example 753, N-{2-fluoro-5-[(4-oxo-3,4,5,6,7,8-hexahydrophthalazin-1-yl)methyl]phenyl}-N-methylcyclobutanecarboxamide] | 7.04

Further lines, results first:

pKi | Compound
8.85 | O=C(c1cc(Cc2n[nH]c(=O)c3c2CCCC3)ccc1F)N1CCN(C(=O)[C@@H]2CSCN2)CC1 [Example 727, 4-[4-fluoro-3-({4-[(4R)-1,3-thiazolidin-4-ylcarbonyl]piperazin-1-yl}carbonyl)benzyl]-5,6,7,8-tetrahydrophthalazin-1(2H)-one]
8.89 | O=C(c1ccccn1)N1CCN(C(=O)c2cc(Cc3n[nH]c(=O)c4c3CCCC4)ccc2F)CC1 [Example 730, 4-(4-fluoro-3-{[4-(pyridin-2-ylcarbonyl)piperazin-1-yl]carbonyl}benzyl)-5,6,7,8-tetrahydrophthalazin-1(2H)-one]
8.77 | O=C(c1cncnc1)N1CCN(C(=O)c2cc(Cc3n[nH]c(=O)c4c3CCCC4)ccc2F)CC1 [Example 733, 4-(4-fluoro-3-{[4-(pyrimidin-5-ylcarbonyl)piperazin-1-yl]carbonyl}benzyl)-5,6,7,8-tetrahydrophthalazin-1(2H)-one]
8.82 | O=C(c1ccc(O)nc1)N1CCN(C(=O)c2cc(Cc3n[nH]c(=O)c4c3CCCC4)ccc2F)CC1 [Example 735, 4-[4-fluoro-3-({4-[(6-hydroxypyridin-3-yl)carbonyl]piperazin-1-yl}carbonyl)benzyl]-5,6,7,8-tetrahydrophthalazin-1(2H)-one]
8.89 | O=C(c1ccc2ccccc2n1)N1CCN(C(=O)c2cc(Cc3n[nH]c(=O)c4c3CCCC4)ccc2F)CC1 [Example 739, 4-(4-fluoro-3-{[4-(quinolin-2-ylcarbonyl)piperazin-1-yl]carbonyl}benzyl)-5,6,7,8-tetrahydrophthalazin-1(2H)-one]
8.82 | O=C(NC1CCN(C(=O)c2cc(Cc3n[nH]c(=O)c4c3NCCC4)ccc2F)CC1)c1cccnc1 [Example 747, N-(1-{2-fluoro-5-[(5-oxo-1,2,3,4,5,6-hexahydropyrido[2,3-d]pyridazin-8-yl)methyl]benzoyl}piperidin-4-yl)nicotinamide]
9.00 | O=C(NC1CCN(C(=O)c2cc(Cc3n[nH]c(=O)c4c3NCCC4)ccc2F)CC1)c1ccncc1 [Example 748, N-(1-{2-fluoro-5-[(5-oxo-1,2,3,4,5,6-hexahydropyrido[2,3-d]pyridazin-8-yl)methyl]benzoyl}piperidin-4-yl)isonicotinamide]
8.85 | O=C(NC1CCN(C(=O)c2cc(Cc3n[nH]c(=O)c4c3NCCC4)ccc2F)CC1)c1ccc2cn[nH]c2c1 [Example 749, N-(1-{2-fluoro-5-[(5-oxo-1,2,3,4,5,6-hexahydropyrido[2,3-d]pyridazin-8-yl)methyl]benzoyl}piperidin-4-yl)-1H-indazole-6-carboxamide]
8.96 | O=C(NC1CCN(C(=O)c2cc(Cc3n[nH]c(=O)c4c3NCCC4)ccc2F)CC1)c1ccco1 [Example 750, N-(1-{2-fluoro-5-[(5-oxo-1,2,3,4,5,6-hexahydropyrido[2,3-d]pyridazin-8-yl)methyl]benzoyl}piperidin-4-yl)-2-furamide]
8.82 | O=C(NC1CCN(C(=O)c2cc(Cc3n[nH]c(=O)c4c3NCCC4)ccc2F)CC1)c1cscn1 [Example 751, N-(1-{2-fluoro-5-[(5-oxo-1,2,3,4,5,6-hexahydropyrido[2,3-d]pyridazin-8-yl)methyl]benzoyl}piperidin-4-yl)-1,3-thiazole-4-carboxamide]
9.22 | Cc1nc2cc(C(=O)N3CCN(C(=O)c4cc(Cc5n[nH]c(=O)c6c5CCCC6)ccc4F)CC3)ccc2[nH]1 [Example 754, 4-[4-fluoro-3-({4-[(2-methyl-1H-benzimidazol-5-yl)carbonyl]piperazin-1-yl}carbonyl)benzyl]-5,6,7,8-tetrahydrophthalazin-1(2H)-one]
8.82 | O=C(c1cc(Cc2n[nH]c(=O)c3c2CCCC3)ccc1F)N1CCN(C(=O)c2cccnc2Cl)CC1 [Example 755, 4-[3-({4-[(2-chloropyridin-3-yl)carbonyl]piperazin-1-yl}carbonyl)-4-fluorobenzyl]-5,6,7,8-tetrahydrophthalazin-1(2H)-one]
9.05 | O=C(c1cc(Cc2n[nH]c(=O)c3c2CCCC3)ccc1F)N1CCN(c2cccnc2)CC1 [Example 756, 4-{4-fluoro-3-[(4-pyridin-3-ylpiperazin-1-yl)carbonyl]benzyl}-5,6,7,8-tetrahydrophthalazin-1(2H)-one]
8.92 | O=C(c1cc(Cc2n[nH]c(=O)c3c2CCCC3)ccc1F)N1CCN(c2cncnc2)CC1 [Example 757, 4-{4-fluoro-3-[(4-pyrimidin-5-ylpiperazin-1-yl)carbonyl]benzyl}-5,6,7,8-tetrahydrophthalazin-1(2H)-one]
8.85 | O=C(NC1CCN(C(=O)c2cc(Cc3n[nH]c(=O)c4c3NCCC4)ccc2F)CC1)c1cn[nH]c1 [Example 758, N-(1-{2-fluoro-5-[(5-oxo-1,2,3,4,5,6-hexahydropyrido[2,3-d]pyridazin-8-yl)methyl]benzoyl}piperidin-4-yl)-1H-pyrazole-4-carboxamide]
9.52 | CN1CCN(C(=O)c2cc(Cc3n[nH]c(=O)c4c3CCCC4)ccc2F)CC1=O [Example 759, 4-{4-fluoro-3-[(4-methyl-3-oxopiperazin-1-yl)carbonyl]benzyl}-5,6,7,8-tetrahydrophthalazin-1(2H)-one]
9.22 | CCN(CCNC(=O)C1CC1)C(=O)c1cc(Cc2n[nH]c(=O)c3c2CCCC3)ccc1F [Example 761, N-{2-[(cyclopropylcarbonyl)amino]ethyl}-N-ethyl-2-fluoro-5-[(4-oxo-3,4,5,6,7,8-hexahydrophthalazin-1-yl)methyl]benzamide]
9.00 | CCN(CCNC(=O)c1c(F)cccc1F)C(=O)c1cc(Cc2n[nH]c(=O)c3c2CCCC3)ccc1F [Example 762, N-{2-[(2,6-difluorobenzoyl)amino]ethyl}-N-ethyl-2-fluoro-5-[(4-oxo-3,4,5,6,7,8-hexahydrophthalazin-1-yl)methyl]benzamide]
9.00 | CCN(CCNC(=O)c1cccnc1)C(=O)c1cc(Cc2n[nH]c(=O)c3c2CCCC3)ccc1F [Example 763, N-[2-(ethyl{2-fluoro-5-[(4-oxo-3,4,5,6,7,8-hexahydrophthalazin-1-yl)methyl]benzoyl}amino)ethyl]nicotinamide]

Same assay, conditions: read-out: PARP-1 (Ki); Table 2; A2 is C1-alkyl versus no A2 (bond)

pKi | Compound
6.72 | O=C1CCCN1c1cc(-c2n[nH]c(=O)c3c2CCCC3)ccc1F [drawing 8]

Same assay, conditions: read-out: PARP-1 (Ki); Table 3; H analogs versus para-F analogs

pKi | Compound
6.55 | O=C(CCN1CCCCC1)Nc1cccc(Cc2n[nH]c(=O)c3c2CCCC3)c1 [drawing 24]
8.40 | O=C(c1cccc(Cc2n[nH]c(=O)c3c2CCCC3)c1)N1CCN(c2ccccc2F)CC1 [drawing 38]
7.72 | NC(=O)C1CCCN(C(=O)c2cccc(Cc3n[nH]c(=O)c4c3CCCC4)c2)C1 (stereo not shown) [drawing 44]
